According to patent publication US6610282B1, “Polymeric controlled release compositions” (Rohm and Haas Company, priority 1998, dated 2003):

Assay: Release of 4,5-dichloro-2-octyl-3-isothiazolone from dry marine paint film in synthetic sea water
Format: physicochemical
Conditions: 14 Days in synthetic sea water; marine paint film with 5%wt active on glass slides, dried 6 days; HPLC of film extract
Procedure: The compositions of Example 1 were evaluated for the control of the release of biologically active molecules in a marine paint.
A blank paint, that is one that contained no biologically active molecules, was dosed with Samples 2-5. The amount of the samples added was such that the total amount of 4,5-dichloro-2-octyl-3-isothiazolone in the paint was 5%wt, based on the total weight of the dry paint film. A control paint was prepared by adding 4,5-dichloro-2-octyl-3-isothiazolone alone. Glass slides were painted with the treated paints as well as the control paint and allowed to dry in a hood for 6 days. The slides were then submerged in a tank of synthetic sea water. The slides were removed after 14 days and the paint film extracted. The extracts were analyzed by HPLC to determine the amount of 4,5-dichloro-2-octyl-3-isothiazolone remaining.

% of 4,5-Dichloro-2-n-octyl-3-isothiazolone Released: 29.0%
SMILES: CCCCCCCCn1sc(Cl)c(Cl)c1=O [Control, 4,5-dichloro-2-octyl-3-isothiazolone]
